Experimental data published in patent US6290993A, “Compositions containing mimosa phenolic compounds” (E-L Management Corp., priority 1999, dated 2001).

System: Normal human dermal fibroblasts
Assay: Collagen-increasing activity, ELISA for collagen type 1 or procollagen type 1
Type: cell-based
Details: 5 ng/ml, positive control, 4 days incubation
Protocol: Normal human dermal fibroblasts are seeded and grown to confluence in a 96-well plate prior to being treated with M. pudica extract or fractions thereof, prepared by solvent/solvent extractions (heptane/70% ethanol, ethyl acetate/water) at various concentrations in complete medium. Media alone serves as negative control and TGF-β serves as positive control. The plates are incubated for 4 days at 37° C./5% CO2 before the supernatants are harvested and stored at -70° C. until an ELISA is performed. Antibodies to collagen type 1 or procollagen type 1 are used for ELISA analysis to determine collagen levels.

## TGF-β
  increase in collagen levels: 46%
